From article PMC12455130, “Multifunctional molecular agent for tau-targeted combinational therapy of Alzheimer’s disease” (The Journal of Biological Chemistry, 2025)

Columns and labels:
[1] = system: SK-N-SH cells; assay: Cell viability assay (CCK-8); format: cell-based; conditions: for SK-N-SH cells dead: 80 μM, 24 h incubation; for cytotoxicity (cell viability): SK-N-SH, concentration up to 40 μM
Protocol: However, we still face challenges to improve their therapeutic effects while reducing neurotoxicity. Therefore, a systematic investigation on the cytotoxicity of our new synthetic compounds was carried out. Herein, human neuroblastoma cells (SK-N-SH) were utilized for standard cell viability assay (Cell Counting Kit-8 [CCK-8] assay).
The human neuroblastoma cell (SK-N-SH) was obtained from the Chinese Academy of Sciences stem cell bank. Cells were maintained in Dulbecco’s modified Eagle’s medium (DMEM) supplemented with 10% fetal bovine serum (FBS), 100 U/ml penicillin G, and 100 μg/ml streptomycin at 37 °C in a humidified atmosphere containing 5% CO2.
Cells were plated in 96-well plate at a density of 1 × 10^4 in 100 μl medium per well for 24 h. Then, the FBS-free medium containing the tested compounds at different concentrations was used to replace the old medium. After 24 h incubation, 100 μl of FBS-free DMEM containing 10% CCK-8 was added into each well to replace the old medium. After 2 h incubation, the absorbance at 450 nm was measured by SpectraMax iD3 (Molecular Devices).

[2] = system: SK-N-SH cells; assay: Intracellular ROS measurement (DCFH, flow cytometry and CLSM); format: cell-based, human; conditions: 15 μM R3, 3.8 μM Cu2+, 10 μM compound; for ROS in SK-N-SH cells generated by R3–Cu2+ complex (flow cytometry): 24 h
Protocol: The flow cytometry and confocal laser scanning microscopy (CLSM) were used to show the intracellular ROS production. […] Consequently, the reductive phenolic hydroxyl groups might be a key factor for scavenging ROS triggered by R3–Cu^2+ complex.
SK-N-SH cells were seeded on a 12-well plate at a density of 1 × 10^5/well and incubated at 37 °C for 24 h, followed by treating with 15 μM R3 in the presence or the absence of 3.8 μM Cu^2+ in FBS-free DMEM. Two hours later, 10 μM 4GA/2GA/4ME/GA was added to the medium, respectively. After 24 h, the culture medium was removed, and 10 μM DCFH diacetate in FBS-free DMEM was added and incubated for 45 min at 37 °C. Samples were washed three times with PBS, and 4% polyformaldehyde was added and fixed at room temperature for 20 min. Cells were observed under a CLSM. For quantitative analysis, cells were harvested and washed three times with ice-cold PBS and resuspended in PBS. The fluorescence intensity of DCFH was analyzed by flow cytometry (CytoFLEX LX).

[3] = system: ROS generated by R3 + Cu^2+; assay: ROS in solution, DCFH fluorescent probe; format: biochemical
From the text: In this experiment, the fluorescent probe, 2′,7′-dichlorodihydrofluorescein (DCFH), was used to detect the formation of ROS in solution.
Figure 7 The scavenge ability of 4GA and 2GA on ROS.A, time-dependent experiment for monitoring ROS level in solution at different conditions, using the fluorescent probe 2′,7′-dichlorodihydrofluorescein (DCFH). B, ROS levels in SK-N-SH cells treated with different conditions detected by the fluorescent probe of DCFH in flow cytometry. The data were reported as the mean ± SD, n = 3. Statistical analysis was performed using a one-way ANOVA test, ∗p < 0.05, ∗∗p < 0.01, and ∗∗∗p < 0.001 (n = 3). C, confocal laser scanning microscopy (CLSM) analysis of the intracellular ROS level stained with DCFH. Scale bar represents 12.5 μm. 2GA, (4,10-dimethyl-1,4,7,10-tetraazacyclododecane-1,7-diyl)bis((3,4,5-trihydroxyphenyl)methanone); 4GA, (1,4,7,10-tetraazacyclododecane-1,4,7,10-tetrayl)tetrakis((3,4,5-trihydroxyphenyl)methanone); ROS, reactive oxygen species.

[4] = system: tau-infected SK-N-SH cells; assay: Immunofluorescence / ThS staining of intracellular tau aggregation; format: cell-based, human; conditions: 1.5 μM R3 aggregates, 10 μM inhibitor; for fluorescence intensity of ThS against the control group: ImageJ
Protocol: The red fluorescence of antitau antibody (Cy3-AB) staining marked for Pan Tau protein. […] Finally, the fluorescence intensity was quantitatively analyzed via ImageJ (National Institutes of Health).
Figure 8 Confocal laser scanning microscopy images of SK-N-SH cells incubated with R3 aggregates and different inhibitors. 2-(4-Amidinophenyl)-6-indolecarbamidine dihydrochloride (DAPI) for nuclei staining (blue); Thioflavin S (ThS) for aggregated Tau protein (green); Cy3 marked anti-Tau antibody (Cy3-AB) for Pan Tau protein (all conformations of Tau) (red). Concentrations of R3 aggregates and inhibitors are 1.5 μM and 10 μM, respectively. Scale bar represents 25 μm.
Tau-infected pathological model cell lines were constructed by human neuroblastoma SK-N-SH cells using R3 aggregates as inducer, referring our earlier article ([28]). R3 aggregates were obtained from coincubation of 15 μM R3 peptide with 3.8 μM heparin in PBS at 37 °C for 4 h. Then, the solution was diluted to 1.5 μM in the culture medium. SK-N-SH cells were seeded onto 24-well plates (1 × 10^5/well) for 24 h. Then, 10 μM of different compounds (inhibitors) per well was added and incubated for 2 h. After changing the culture medium, these cells were treated with 1.5 μM R3 aggregates for 12 h and then further continued incubation for 12 h.
The samples were successively treated with 4% paraformaldehyde and 0.1% Triton X-100 for 15 min each and washed three times with PBS. Blocked with 5% goat serum for 30 min, the samples were incubated with rabbit anti-Tau antibody (1:200 dilution) at 4 °C for 24 h and washed three times with PBS. Then they were incubated with Cy3-conjugated Donkey Anti-Rabbit IgG (1:1000 dilution) at 37 °C for 1 h and washed three times with PBS. Subsequently, 60 μM ThS was added to stain tau aggregates for 15 min and washed three times with PBS. Finally, cells were stained with 2-(4-amidinophenyl)-6-indolecarbamidine dihydrochloride (0.02%) for 5 min to staining nuclei and washed three times with PBS. The antifade mounting medium was used for cell slides to ensure fluorescence. The fluorescence signals were monitored using a CLSM (Leica TCS SP8).
Fig. S16 Quantitatively analysis of the fluorescence intensity in the Confocal laser scanning microscopy images ([…]) of SK-N-SH cells incubated with R3, heparin and different inhibitors by ImageJ software. Florescence intensity per cell (n = 8), analyzed by ImageJ software.

SMILES | SK-N-SH cells dead [1] [%] | cytotoxicity (cell viability) ([1]; 24 h) | CLSM green fluorescence (intracellular ROS) [2] | ROS in SK-N-SH cells generated by R3–Cu2+ complex (flow cytometry) [2] | DCFH fluorescence (ROS) in R3 + Cu2+ solution [3] | intracellular tau aggregation (ThS green fluorescence, CLSM) [4] | fluorescence intensity of ThS against the control group [4] [%] | cytotoxicity (survival rate of SK-N-SH cells) ([1]; dose-dependent test, 24 h)
CN1CCN(C(=O)c2cc(O)c(O)c(O)c2)CCN(C)CCN(C(=O)c2cc(O)c(O)c(O)c2)CC1 [2GA, (4,10-dimethyl-1,4,7,10-tetraazacyclododecane-1,7-diyl)bis((3,4,5-trihydroxyphenyl)methanone)] | 34.2 | insignificant cytotoxicity | almost disappeared | appreciably decreased, almost to the control level | returning to the level observed in the R3 solution without Cu^2+ | the green fluorescence disappeared | 4.6 | 
O=C(c1cc(O)c(O)c(O)c1)N1CCN(C(=O)c2cc(O)c(O)c(O)c2)CCN(C(=O)c2cc(O)c(O)c(O)c2)CCN(C(=O)c2cc(O)c(O)c(O)c2)CC1 [4GA, (1,4,7,10-tetraazacyclododecane-1,4,7,10-tetrayl)tetrakis((3,4,5-trihydroxyphenyl)methanone)] | 40.5 | insignificant cytotoxicity | almost disappeared | appreciably decreased, almost to the control level | returning to the level observed in the R3 solution without Cu^2+ | the green fluorescence disappeared | 3.3 | 
CN1CCN(C)CCN(C)CCN(C)CC1 [4ME, 1,4,7,10-tetramethyl-1,4,7,10-tetraazacyclododecane, reference compound] |  |  |  | did not decrease |  | slight inhibitory efficiency |  | negligible
O=C(O)c1cc(O)c(O)c(O)c1 [GA, gallic acid, reference compound] |  |  | almost disappeared | appreciably decreased, almost to the control level | could also quench the DCFH fluorescence | slight inhibitory efficiency |  | 
